According to publication PMC6100082, “Pyridine-Ureas as Potential Anticancer Agents: Synthesis and In Vitro Biological Evaluation” (Molecules : A Journal of Synthetic Chemistry and Natural …, 2018):
Where two headings read alike, the source gives them in different places.

Assays:
Assay type in all cases: cell-based, human
[1] = system: breast cancer MCF-7 cell line; experiment: In vitro anti-proliferative activity, MTT assay; settings: MCF-7, MTT
How it was run: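 Growth inhibition was read colorimetrically by MTT, run in triplicate and averaged over at least three independent experiments. The cells were maintained in DMEM supplemented with 10 μg/mL insulin, 10% heat-inactivated FBS and 1% penicillin-streptomycin.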

CCRF-CEM = experiment: NCI one-dose SRB assay (Leukemia); settings: for Growth Percent: 1.00E-5 Molar
Protocol: (§1) The structures of all the newly prepared pyridine-ureas 8a–n were submitted to the National Cancer Institute (NCI) Developmental Therapeutic Program. Eight compounds 8b, 8d, 8e, 8i, 8j and 8l–n were selected to be examined for their in vitro growth inhibitory activity. The anticancer assays were carried out according to the protocol of the Drug Evaluation Branch, NCI, Bethesda. The selected pyridine-ureas were tested at one dose primary anticancer assay against a panel of approximately 58 cancer lines (concentration 10^−5 M). The tested human cancer cell lines emerged from nine different cancer subtypes: leukemia, colon, melanoma, ovarian, lung, CNS, renal, breast and prostate cancers. The sulforhodamine B (SRB) protein assay was adopted to estimate the cell viability and growth. The results were reported as mean-graph of the percentage growth of the treated cells, and presented as percentage growth inhibition (GI%) caused by the test compounds (Table 2).
(§2) The anticancer assays were performed in accordance with the protocol of the Drug Evaluation Branch, NCI, Bethesda. A 48 h drug exposure protocol was used and sulforhodamine B (SRB) protein assay was applied to estimate the cell viability and growth, as reported earlier.

HL-60(TB) = experiment: NCI one-dose SRB assay (Leukemia); settings: for Growth Percent: 1.00E-5 Molar
Protocol: as §1, §2

K-562 = experiment: NCI one-dose SRB assay (Leukemia); settings: for Growth Percent: K-562, 1.00E-5 Molar
Protocol: as §1, §2

MOLT-4 = experiment: NCI one-dose SRB assay (Leukemia); settings: for Growth Percent: MOLT-4, 1.00E-5 Molar
Protocol: as §1, §2

RPMI-8226 = experiment: NCI one-dose SRB assay (Leukemia); settings: for Growth Percent: RPMI-8226, 1.00E-5 Molar
Protocol: as §1, §2

SR = experiment: NCI one-dose SRB assay (Leukemia); settings: for Growth Percent: 1.00E-5 Molar
Protocol: as §1, §2

A549/ATCC = experiment: NCI one-dose SRB assay (Non-Small Cell Lung Cancer); settings: for Growth Percent: 1.00E-5 Molar
Protocol: as §1, §2

EKVX = experiment: as above; settings: for Growth Percent: 1.00E-5 Molar
Protocol: as §1, §2

HOP-62 = experiment: as above; settings: for Growth Percent: HOP-62, 1.00E-5 Molar
Protocol: as §1, §2

HOP-92 = experiment: as above; settings: for Growth Percent: HOP-92, 1.00E-5 Molar
Protocol: as §1, §2

NCI-H226 = experiment: as above; settings: for Growth Percent: NCI-H226, 1.00E-5 Molar
Protocol: as §1, §2

NCI-H23 = experiment: as above; settings: for Growth Percent: NCI-H23, 1.00E-5 Molar
Protocol: as §1, §2

NCI-H322M = experiment: as above; settings: for Growth Percent: 1.00E-5 Molar
Protocol: as §1, §2

NCI-H460 = experiment: as above; settings: for Growth Percent: NCI-H460, 1.00E-5 Molar
Protocol: as §1, §2

NCI-H522 = experiment: as above; settings: for Growth Percent: NCI-H522, 1.00E-5 Molar
Protocol: as §1, §2

LOX IMVI = experiment: NCI one-dose SRB assay (Melanoma); settings: for Growth Percent: 1.00E-5 Molar
Protocol: as §1, §2

M14 = experiment: NCI one-dose SRB assay (Melanoma); settings: for Growth Percent: M14, 1.00E-5 Molar
Protocol: as §1, §2

MALME-3M = experiment: NCI one-dose SRB assay (Melanoma); settings: for Growth Percent: 1.00E-5 Molar
Protocol: as §1, §2

MDA-MB-435 = experiment: NCI one-dose SRB assay (Melanoma); settings: for Growth Percent: MDA-MB-435, 1.00E-5 Molar
Protocol: as §1, §2

SK-MEL-28 = experiment: NCI one-dose SRB assay (Melanoma); settings: for Growth Percent: SK-MEL-28, 1.00E-5 Molar
Protocol: as §1, §2

SK-MEL-2 = experiment: NCI one-dose SRB assay (Melanoma); settings: for Growth Percent: SK-MEL-2, 1.00E-5 Molar
Protocol: as §1, §2

SK-MEL-5 = experiment: NCI one-dose SRB assay (Melanoma); settings: for Growth Percent: SK-MEL-5, 1.00E-5 Molar
Protocol: as §1, §2

UACC-62 = experiment: NCI one-dose SRB assay (Melanoma); settings: for Growth Percent: UACC-62, 1.00E-5 Molar
Protocol: as §1, §2

[2] = 48 h of incubation, read-out: IC50 48 h
[3] = Homo sapiens, 10 μM, read-out: Percentage growth inhibition (GI%)

COc1ccc(-c2ccc(NC(=O)Nc3cccc(Cl)c3)c(C)n2)cc1OC [Compound 8j, 1-(3-Chlorophenyl)-3-(6-(3,4-dimethoxyphenyl)-2-methylpyridin-3-yl) Urea]
IC50 ([1]; Homo sapiens, MCF7, 48 h, 48 h of incubation, read-out: IC50 48 h): 10.1 µM | IC50 ([1]; Homo sapiens, MCF7, 72 h, 72 h of incubation, read-out: IC50 72 h): 26.2 ± 2.17 µM | IC50 [1, 2]: 10.9 ± 1.03 µM | Growth Percent (CCRF-CEM): 68.29% | inhibition at 10 µM (CCRF-CEM; [3]): 32% | Growth Percent (HL-60(TB)): 63.92% | inhibition at 10 µM (HL-60(TB); [3]): 37% | inhibition at 10 µM (K-562; Homo sapiens, K562, K-562, 10 μM, read-out: Percentage growth inhibition (GI%)): 60% | Growth Percent (K-562): 40.86% | inhibition at 10 µM (MOLT-4; Homo sapiens, MOLT-4, 10 μM, read-out: Percentage growth inhibition (GI%)): 58% | Growth Percent (MOLT-4): 42.64% | inhibition at 10 µM (RPMI-8226; Homo sapiens, RPMI-8226, 10 μM, read-out: Percentage growth inhibition (GI%)): 49% | Growth Percent (RPMI-8226): 51.32% | Growth Percent (SR): 52.07% | inhibition at 10 µM (SR; [3]): 48% | Growth Percent (A549/ATCC): 61.64% | inhibition at 10 µM (A549/ATCC; [3]): 39% | Growth Percent (EKVX): 83.81% | inhibition at 10 µM (EKVX; [3]): 17% | Growth Percent (HOP-62): 77.77% | inhibition at 10 µM (HOP-62; Homo sapiens, HOP-62, 10 μM, read-out: Percentage growth inhibition (GI%)): 23% | Growth Percent (HOP-92): 60.18% | inhibition at 10 µM (HOP-92; Homo sapiens, HOP-92, 10 μM, read-out: Percentage growth inhibition (GI%)): 40% | inhibition at 10 µM (NCI-H226; Homo sapiens, NCI-H226, 10 μM, read-out: Percentage growth inhibition (GI%)): < 10% | Growth Percent (NCI-H226): 91.65% | inhibition at 10 µM (NCI-H23; Homo sapiens, NCI-H23, 10 μM, read-out: Percentage growth inhibition (GI%)): 11% | Growth Percent (NCI-H23): 89.49% | Growth Percent (NCI-H322M): 85.92% | inhibition at 10 µM (NCI-H322M; [3]): 15% | inhibition at 10 µM (NCI-H460; Homo sapiens, NCI-H460, 10 μM, read-out: Percentage growth inhibition (GI%)): 17% | Growth Percent (NCI-H460): 83.94% | inhibition at 10 µM (NCI-H522; Homo sapiens, NCI-H522, 10 μM, read-out: Percentage growth inhibition (GI%)): 41% | Growth Percent (NCI-H522): 59.88% | Growth Percent (LOX IMVI): 80.89% | inhibition at 10 µM (LOX IMVI; [3]): 20% | inhibition at 10 µM (M14; Homo sapiens, M14, 10 μM, read-out: Percentage growth inhibition (GI%)): 50% | Growth Percent (M14): 50.80% | Growth Percent (MALME-3M): 98.93% | inhibition at 10 µM (MALME-3M; [3]): < 10% | inhibition at 10 µM (MDA-MB-435; Homo sapiens, MDA-MB-435, 10 μM, read-out: Percentage growth inhibition (GI%)): 13% | Growth Percent (MDA-MB-435): 87.66% | inhibition at 10 µM (SK-MEL-28; Homo sapiens, SK-MEL-28, 10 μM, read-out: Percentage growth inhibition (GI%)): 21% | Growth Percent (SK-MEL-28): 79.52% | inhibition at 10 µM (SK-MEL-2; Homo sapiens, SK-MEL-2, 10 μM, read-out: Percentage growth inhibition (GI%)): 16% | Growth Percent (SK-MEL-2): 84.73% | inhibition at 10 µM (SK-MEL-5; Homo sapiens, SK-MEL-5, 10 μM, read-out: Percentage growth inhibition (GI%)): 32% | Growth Percent (SK-MEL-5): 68.63% | inhibition at 10 µM (UACC-62; Homo sapiens, UACC-62, 10 μM, read-out: Percentage growth inhibition (GI%)): 25% | Growth Percent (UACC-62): 75.01%

1-(4-Chloro-4-(trifluoromethyl)cyclohexa-2,5-dien-1-yl)-3-(6-(3,4-dimethoxyphenyl)-2-methylpyridin-3-yl)urea [Compound 8l]
IC50 [1, 2]: 7.03 ± 0.61 µM | IC50 ([1]; 72 h of incubation, read-out: IC50 72 h): 21.4 ± 2.03 µM | Percentage growth inhibition (GI%) (CCRF-CEM; 10 μM): 45% | Growth Percent (CCRF-CEM): 55.04% | Percentage growth inhibition (GI%) (HL-60(TB); 10 μM): 48% | Growth Percent (HL-60(TB)): 52.58% | Percentage growth inhibition (GI%) (K-562; K-562, 10 μM): 51% | Growth Percent (K-562): 49.47% | Percentage growth inhibition (GI%) (MOLT-4; MOLT-4, 10 μM): 57% | Growth Percent (MOLT-4): 43.68% | Percentage growth inhibition (GI%) (RPMI-8226; RPMI-8226, 10 μM): 57% | Growth Percent (RPMI-8226): 43.88% | Percentage growth inhibition (GI%) (SR; 10 μM): 40% | Growth Percent (SR): 60.09% | Percentage growth inhibition (GI%) (A549/ATCC; 10 μM): 56% | Growth Percent (A549/ATCC): 44.62% | Percentage growth inhibition (GI%) (EKVX; 10 μM): 33% | Growth Percent (EKVX): 67.30% | Percentage growth inhibition (GI%) (HOP-62; HOP-62, 10 μM): 23% | Growth Percent (HOP-62): 77.10% | Percentage growth inhibition (GI%) (HOP-92; HOP-92, 10 μM): 30% | Growth Percent (HOP-92): 70.53% | Percentage growth inhibition (GI%) (NCI-H226; NCI-H226, 10 μM): 28% | Growth Percent (NCI-H226): 72.73% | Percentage growth inhibition (GI%) (NCI-H23; NCI-H23, 10 μM): 29% | Growth Percent (NCI-H23): 71.36% | Percentage growth inhibition (GI%) (NCI-H322M; 10 μM): 13% | Growth Percent (NCI-H322M): 87.05% | Percentage growth inhibition (GI%) (NCI-H460; NCI-H460, 10 μM): 48% | Growth Percent (NCI-H460): 52.19% | Percentage growth inhibition (GI%) (NCI-H522; NCI-H522, 10 μM): 57% | Growth Percent (NCI-H522): 43.02% | Percentage growth inhibition (GI%) (LOX IMVI; 10 μM): 22% | Growth Percent (LOX IMVI): 78.57% | Percentage growth inhibition (GI%) (M14; M14, 10 μM): 53% | Growth Percent (M14): 47.02% | Percentage growth inhibition (GI%) (MALME-3M; 10 μM): 10% | Growth Percent (MALME-3M): 90.89% | Percentage growth inhibition (GI%) (MDA-MB-435; MDA-MB-435, 10 μM): 23% | Growth Percent (MDA-MB-435): 77.84% | Percentage growth inhibition (GI%) (SK-MEL-28; SK-MEL-28, 10 μM): 27% | Growth Percent (SK-MEL-28): 73.58% | Percentage growth inhibition (GI%) (SK-MEL-2; SK-MEL-2, 10 μM): 13% | Growth Percent (SK-MEL-2): 87.87% | Percentage growth inhibition (GI%) (SK-MEL-5; SK-MEL-5, 10 μM): 37% | Growth Percent (SK-MEL-5): 63.85% | Percentage growth inhibition (GI%) (UACC-62; UACC-62, 10 μM): 23% | Growth Percent (UACC-62): 77.31%
